Reference: patent US20230049231A1 (priority 2019, published 2023)
pIC50: −log10 of the molar value.

Key:
Kv1.3 potassium channel = biological target: T1, Kv1.3 potassium channel (Homo sapiens, UniProt P22001); experiment: Kv1.3 potassium channel blocker activity, automated whole-cell patch clamp (Patchliner); format: cell-based
T1 construct: expressed in transfected cells
Description: This assay is used to evaluate the disclosed compounds' activities as Kv1.3 potassium channel blockers.
CHO-K1 cells stably expressing Kv1.3 were grown in DMEM containing 10% heat-inactivated FBS, 1 mM sodium pyruvate, 2 mM L-glutamine and G418 (500 μg/ml). Cells were grown in culture flasks at 37° C. in a 5% CO2-humidified incubator.
(§1) The cells were bathed in an extracellular solution containing 140 mM NaCl, 4 mM KCl, 2 mM CaCl2), 1 mM MgCl2, 5 mM glucose, and 10 mM HEPES; pH adjusted to 7.4 with NaOH; 295-305 mOsm. The internal solution contained 50 mM KCl, 10 mM NaCl, 60 mM KF, 20 mM EGTA, and 10 mM HEPES; pH adjusted to 7.2 with KOH; 285 mOsm. All compounds were dissolved in DMSO at 30 mM. Compound stock solutions were freshly diluted with external solution to concentrations of 30 nM, 100 nM, 300 nM, 1 μM, 3 μM, 10 μM, 30 μM and 100 μM. The highest content of DMSO (0.3%) was present in 100 μM.
The currents were evoked by applying 100 ms depolarizing pulses from −90 mV (holding potential) to +40 mV were applied with 0.1 Hz frequency. Control (compound-free) and compound pulse trains for each compound concentration applied contained 20 pulses.
10-second breaks were used between pulse trains (see Table 2 below).
Whole-cell current recordings and compound application were enabled by means of an automated patch clamp platform Patchliner (Nanion Technologies GmbH). EPC 10 patch clamp amplifier (HEKA Elektronik Dr. Schulze GmbH) along with Patchmaster software (HEKA Elektronik Dr. Schulze GmbH) was used for data acquisition. Data were sampled at 10 kHz without filtering. Passive leak currents were subtracted online using a P/4 procedure (HEKA Elektronik Dr. Schulze GmbH). Increasing compound concentrations were applied consecutively to the same cell without washouts in between. Total compound incubation time before the next pulse train was not longer than 10 seconds. Peak current inhibition was observed during compound equilibration.
(§2) AUC and peak values were obtained with Patchmaster (HEKA Elektronik Dr. Schulze GmbH). To determine IC50, the last single pulse in the pulse train corresponding to a given compound concentration was used. Obtained AUC and peak values in the presence of compound were normalized to control values in the absence of compound. Using Origin (OridinLab), IC50 was derived from data fit to Hill equation: Icompound/Icontrol=(100−A)/(1+([compound]/IC50)nH)+A, where IC50 value is the concentration at which current inhibition is half-maximal, [compound] is the applied compound concentration, A is the fraction of current that is not blocked and nH is the Hill coefficient.

hERG channel = biological target: T2, hERG channel (Homo sapiens, UniProt Q12809); experiment: hERG electrophysiology, automated whole-cell patch clamp (Patchliner); format: cell-based
T2 construct: expressed in transfected cells
T2 sequence (Q12809 whole entry): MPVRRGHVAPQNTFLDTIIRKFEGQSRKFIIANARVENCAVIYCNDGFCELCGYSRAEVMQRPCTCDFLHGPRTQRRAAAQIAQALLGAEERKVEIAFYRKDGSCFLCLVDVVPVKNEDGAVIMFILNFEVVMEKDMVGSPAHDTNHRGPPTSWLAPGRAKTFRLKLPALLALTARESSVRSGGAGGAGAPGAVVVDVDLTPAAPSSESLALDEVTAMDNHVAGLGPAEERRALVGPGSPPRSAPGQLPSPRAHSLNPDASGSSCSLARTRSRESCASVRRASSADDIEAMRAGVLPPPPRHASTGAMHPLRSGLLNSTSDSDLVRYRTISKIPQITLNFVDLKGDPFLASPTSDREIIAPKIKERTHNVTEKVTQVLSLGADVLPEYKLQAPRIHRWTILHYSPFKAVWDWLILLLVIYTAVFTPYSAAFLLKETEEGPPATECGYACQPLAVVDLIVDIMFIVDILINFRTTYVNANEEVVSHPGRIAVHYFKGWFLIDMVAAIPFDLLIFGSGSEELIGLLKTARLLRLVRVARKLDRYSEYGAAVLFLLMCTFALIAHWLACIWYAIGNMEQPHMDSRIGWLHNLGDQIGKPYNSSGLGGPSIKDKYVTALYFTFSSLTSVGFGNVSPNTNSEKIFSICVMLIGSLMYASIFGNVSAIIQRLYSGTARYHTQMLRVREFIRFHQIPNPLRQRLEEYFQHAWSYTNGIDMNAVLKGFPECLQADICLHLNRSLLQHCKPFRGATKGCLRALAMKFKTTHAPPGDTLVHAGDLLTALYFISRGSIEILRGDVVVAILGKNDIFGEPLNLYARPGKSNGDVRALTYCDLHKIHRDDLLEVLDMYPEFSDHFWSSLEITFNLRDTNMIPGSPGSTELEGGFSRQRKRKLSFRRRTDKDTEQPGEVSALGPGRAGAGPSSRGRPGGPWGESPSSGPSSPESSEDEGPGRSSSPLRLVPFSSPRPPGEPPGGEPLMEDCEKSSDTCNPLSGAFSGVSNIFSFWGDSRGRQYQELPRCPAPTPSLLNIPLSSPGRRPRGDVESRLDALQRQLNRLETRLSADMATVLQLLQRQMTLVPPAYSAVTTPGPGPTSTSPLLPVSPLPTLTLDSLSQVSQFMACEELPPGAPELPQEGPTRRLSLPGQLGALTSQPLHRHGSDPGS
Description: This assay is used to evaluate the disclosed compounds' inhibition activities against the hERG channel.
CHO-K1 cells stably expressing hERG were grown in Ham's F-12 Medium with glutamine containing 10% heat-inactivated FBS, 1% penicillin/streptomycin, hygromycin (100 μg/ml) and G418 (100 μg/ml). Cells were grown in culture flasks at 37° C. in a 5% CO2-humidified incubator.
as §1
The voltage protocol (see Table 3) was designed to simulate voltage changes during a cardiac action potential with a 300 ms depolarization to +20 mV (analogous to the plateau phase of the cardiac action potential), a repolarization for 300 ms to −50 mV (inducing a tail current) and a final step to the holding potential of −80 mV. The pulse frequency was 0.3 Hz. Control (compound-free) and compound pulse trains for each compound concentration applied contained 70 pulses.
Whole-cell current recordings and compound application were enabled by means of an automated patch clamp platform Patchliner (Nanion). EPC 10 patch clamp amplifier (HEKA) along with Patchmaster software (HEKA Elektronik Dr. Schulze GmbH) was used for data acquisition. Data were sampled at 10 kHz without filtering. Increasing compound concentrations were applied consecutively to the same cell without washouts in between.
as §2, with “PEAK” for “peak”, “IC50” for “IC50,”, “Icompound/Icontrol=(100-A)/(1+([compound]/IC50)nH)+A,” for “Icompound/Icontrol=(100−A)/(1+([compound]/IC50)nH)+A,”, “IC50” for “IC50 value”

[1] = CHO-K1 cells stably expressing Kv1.3, 100 ms pulses from -90 mV to +40 mV, 0.1 Hz
[2] = CHO-K1 cells stably expressing hERG, +20 mV 300 ms, -50 mV 300 ms tail current, 0.3 Hz
[3] = Kv1.3 potassium channel, whole-cell patch clamp
[4] = hERG channel, whole-cell patch clamp

T1 sequence (P22001 whole entry): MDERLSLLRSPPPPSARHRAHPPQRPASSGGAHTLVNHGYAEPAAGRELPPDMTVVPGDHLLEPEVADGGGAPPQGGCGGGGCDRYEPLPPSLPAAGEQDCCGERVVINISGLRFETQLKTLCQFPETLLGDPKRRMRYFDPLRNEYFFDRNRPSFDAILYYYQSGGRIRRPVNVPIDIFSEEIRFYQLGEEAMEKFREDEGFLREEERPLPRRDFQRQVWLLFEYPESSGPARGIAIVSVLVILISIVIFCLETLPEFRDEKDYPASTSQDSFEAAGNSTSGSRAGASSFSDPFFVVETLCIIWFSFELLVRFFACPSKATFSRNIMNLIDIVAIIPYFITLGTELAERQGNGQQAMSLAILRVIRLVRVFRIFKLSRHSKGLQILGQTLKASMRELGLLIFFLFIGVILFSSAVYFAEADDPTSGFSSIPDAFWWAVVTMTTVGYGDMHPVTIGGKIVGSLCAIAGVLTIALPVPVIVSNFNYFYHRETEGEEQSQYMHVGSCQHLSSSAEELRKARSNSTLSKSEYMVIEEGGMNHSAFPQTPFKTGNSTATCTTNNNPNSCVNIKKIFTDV

| Structure (SMILES) | pIC50 (Kv1.3 potassium channel; [1]) | pIC50 (Kv1.3 potassium channel; [3]) | pIC50 (hERG channel; [2]) | pIC50 (hERG channel; [4]) |
| --- | --- | --- | --- | --- |
| O=C1CN(C(=O)[C@H]2C[C@@H](O)C2)C[C@@H]2C[C@H](c3c(O)ccc(Cl)c3Cl)CN12 (single isomer, unassigned; isomer 2) [Compound 22] | > 6.00 | – | < 4.52 | – |
| O=C1CC(N2CCNCC2)C[C@@H]2C[C@H](c3c(O)ccc(Cl)c3Cl)CN12 (stereo in doubt) [Compound 208, (2R,7R,8aS)-2-(2,3-dichloro-6-hydroxyphenyl)-7-(piperazin-1-yl)hexahydroindolizin-5(1H)-one] | – | > 6.00 | – | > 5.00 |
| O=C1O[C@H](CO)C[C@@H]2C[C@H](c3c(O)ccc(Cl)c3Cl)CN12 (single isomer, unassigned) [Compound 268] | – | > 6.00 | – | < 4.52 |
| COC[C@H](CO)N1CC(=O)N2C[C@@H](c3c(O)ccc(Cl)c3Cl)C[C@H]2C1 (single isomer, unassigned) [Compound 118] | – | > 6.00 | – | < 4.52 |
| O=C1C[C@@H](O)C[C@@H]2C[C@H](c3c(O)ccc(Cl)c3Cl)CN12 (single isomer, unassigned; isomer 1) [Compound 61] | > 6.00 | – | < 4.52 | – |
| O=C1CN(C(CO)CO)C[C@@H]2C[C@H](c3c(O)ccc(Cl)c3Cl)CN12 [Compound 124, (7R,8aS)-7-(2,3-dichloro-6-hydroxyphenyl)-2-(1,3-dihydroxypropan-2-yl)-hexahydropyrrolo [1,2-a]pyrazin-4-one] | – | > 6.00 | – | < 4.52 |
| O=C(CCO)N1CC(=O)N2CC[C@@H](c3c(O)ccc(Cl)c3Cl)C[C@H]2C1 [Compound 11, (8R,9aS)-8-(2,3-dichloro-6-hydroxyphenyl)-2-(3-hydroxypropanoyl)octahydro-4H-pyrido[1,2-a]pyrazin-4-one] | > 6.00 | – | < 4.52 | – |
| N#CCC(=O)N1CC(=O)N2C[C@@H](c3c(O)ccc(Cl)c3Cl)C[C@H]2C1 [Compound 41, 3-[(7R,8aS)-7-(2,3-dichloro-6-hydroxypheny1)-4-oxo-hexahydropyrrolo[1,2-a]pyrazin-2-yl]-3-oxopropanenitrile] | > 6.00 | – | < 4.52 | – |
| O=C(NC1CNC1)[C@@H]1CC(=O)N2C[C@@H](c3c(O)ccc(Cl)c3Cl)C[C@H]2C1 (single isomer, unassigned) [Compound 236] | – | > 6.00 | – | < 4.52 |
| O=C1CN(c2cc(CO)ccn2)C[C@@H]2C[C@H](c3c(O)ccc(Cl)c3Cl)CN12 [Compound 173] | – | > 6.00 | – | > 4.52 |
| O=C1CN(CC(O)CO)C[C@@H]2C[C@H](c3c(O)ccc(Cl)c3Cl)CN12 (stereo partly drawn) [Compound 112, (7R,8aS)-7-(2,3-dichloro-6-hydroxyphenyl)-2-(2,3-dihydroxypropyl)-hexahydropyrrolo [l,2-a]pyrazin-4-one] | – | > 6.00 | – | < 4.52 |

Now from value to molecule, other results behind:

| pIC50 (Kv1.3 potassium channel; [1]) | pIC50 (Kv1.3 potassium channel; [3]) | Structure (SMILES) | pIC50 (hERG channel; [2]) | pIC50 (hERG channel; [4]) |
| --- | --- | --- | --- | --- |
| > 6.00 | – | O=C([C@@H](O)CO)N1CC(=O)N2C[C@@H](c3c(O)ccc(Cl)c3Cl)C[C@H]2C1 [Compound 34, (7R,8aS)-7-(2,3-dichloro-6-hydroxyphenyl)-2-[(2S)-2,3-dihydroxypropanoyl]-hexahydropyrrolo [1,2-a]pyrazin-4-one] | < 4.52 | – |
| – | > 6.00 | O=C1CN(C[C@@H]2CCN2)C[C@@H]2C[C@H](c3c(O)ccc(Cl)c3Cl)CN12 (single isomer, unassigned; isomer 1) [Compound 139] | – | < 4.52 |
| – | > 6.00 | O=C(C[C@@H](O)C1CC1)N1CC(=O)N2C[C@@H](c3c(O)ccc(Cl)c3Cl)C[C@H]2C1 [Compound 72, (7R,8aS)-2-[(3R)-3-cyclopropyl-3-hydroxypropanoyl]-7-(2,3-dichloro-6-hydroxyphenyl)-hexahydropyrrolo [1,2-a]pyrazin-4-one] | – | > 4.52 |
| – | > 6.00 | O=C(CC(F)F)N1CC(=O)N2C[C@@H](c3c(O)ccc(Cl)c3Cl)C[C@H]2C1 [Compound 68, (7R,8aS)-7-(2,3-dichloro-6-hydroxyphenyl)-2-(3,3-difluoropropanoyl)-hexahydropyrrolo [1,2-a]pyrazin-4-one] | – | < 4.52 |
| – | > 6.00 | NCCN1C[C@@H]2C[C@H](c3c(O)ccc(Cl)c3Cl)CN2C1=O [Compound 292, (6R,7aS)-2-(2-aminoethyl)-6-(2,3-dichloro-6-hydroxyphenyl)-tetrahydro-1H-pyrrolo[1,2-c]imidazol-3-one] | – | > 4.52 |
| – | > 6.00 | O=C(NCCO)[C@@H]1CC(=O)N2C[C@@H](c3c(O)ccc(Cl)c3Cl)C[C@H]2C1 (single isomer, unassigned) [Compound 234] | – | < 4.52 |
| – | > 6.00 | N[C@H]1CC(=O)N2C[C@@H](c3c(O)ccc(Cl)c3Cl)C[C@H]2C1 (single isomer, unassigned) [Compound 189] | – | < 4.52 |
| – | > 6.00 | O=C1CN([C@@H]2CC[C@H]2O)C[C@@H]2C[C@H](c3c(O)ccc(Cl)c3Cl)CN12 (relative stereo) [Compound 159, (7R,8aS)-7-(2,3-dichloro-6-hydroxyphenyl)-2-[(1S,2S)-rel-2-hydroxycyclobutyl]-hexahydropyrrolo[1,2-a]pyrazin-4-one] | – | < 4.52 |
| > 6.00 | – | O=C1[C@@H](CO)OC[C@@H]2C[C@H](c3c(O)ccc(Cl)c3Cl)CN12 [Compound 50, (3R,7R,8aS)-7-(2,3-dichloro-6-hydroxyphenyl)-3-(hydroxymethyl)-hexahydropyrrolo[2,1-c][1,4]oxazin-4-one] | < 4.52 | – |
| – | > 6.00 | O=C1CN([C@H]2C[C@](O)(CO)C2)C[C@@H]2C[C@H](c3c(O)ccc(Cl)c3Cl)CN12 (single isomer, unassigned; isomer 1) [Compound 163] | – | < 4.52 |
| > 6.00 | – | CC1[C@@H]2C[C@H](c3c(O)ccc(Cl)c3Cl)CCN2C(=O)CN1C(=O)CO (stereo partly drawn) [Compound 25, (8R,9aS)-8-(2,3-dichloro-6-hydroxypheny1)-2-(2-hydroxyacetyl)-1-methyl-hexahydro-1H-pyrido[1,2-a]pyrazin-4-one] | < 4.52 | – |
| – | > 6.00 | CC1(CN2CC(=O)N3C[C@@H](c4c(O)ccc(Cl)c4Cl)C[C@H]3C2)CNC1 [Compound 167, (7R,8aS)-7-(2,3-dichloro-6-hydroxyphenyl)-2-[(3-methylazetidin-3-yl)methyl]-hexahydropyrrolo[1,2-a]pyrazin-4-one] | – | < 4.52 |
| – | > 6.00 | O=C1CN([C@H]2C[C@H](O)C2)C[C@@H]2C[C@H](c3c(O)ccc(Cl)c3Cl)CN12 (relative stereo) [Compound 125, (7R,8aS)-7-(2,3-dichloro-6-hydroxyphenyl)-2-[(1r,3S)-rel-3-hydroxycyclobutyl] hexahydropyrrolo [1,2-a]pyrazin-4-one] | – | < 4.52 |
| – | > 6.00 | CN1CC(N2CC(=O)N3C[C@@H](c4c(O)ccc(Cl)c4Cl)C[C@H]3C2)C1 [Compound 132, (7R,8aS)-7-(2,3-dichloro-6-hydroxyphenyl)-2-(1-methylazetidin-3-yl)-hexahydropyrrolo [1,2-a]pyrazin-4-one] | – | > 4.52 |
